Measured values published in patent US9671406B2, “SPARC and methods of use thereof” (Abraxis BioScience, LLC, priority 2006, dated 2017).

Tested on: gp60-mediated caveolar transcytosis
Test: Inhibition of transport of paclitaxel from ABX across endothelial monolayers
Type: cell-based, human
Conditions: FIG. 4
Text: Transport was dependent on albumin.

In the case of β-methyl cyclodextrin [BMC], the “effect on transport of paclitaxel from ABX across endothelial monolayers” value is reported as “inhibited”.

`CCN1C(=O)C=CC1=O` [NEM] was tested, and the “effect on transport of paclitaxel from ABX across endothelial monolayers” value was “inhibited”.
